Among the data in the supplement of paper PMC10307832 are relative viability values, retold here.

Holding throughout (test): relative viability (nuclei count vs DMSO), 5 days (fraction); higher = more cells survive
Compound in the assay “FH535 + Dasatinib”: CC1=C(C=CC(=C1)[N+](=O)[O-])NS(=O)(=O)C2=C(C=CC(=C2)Cl)Cl [FH535] + Cc1nc(Nc2ncc(C(=O)Nc3c(C)cccc3Cl)s2)cc(N2CCN(CCO)CC2)n1 [Dasatinib] (partner 0.075 µM)
The procedure, abridged: (§1)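 Relative viability divides the nuclei count in treated wells by that in vehicle wells. Lung cancer cell lines were seeded in 1536-well plates, dosed by pin tool the next day, and fixed and stained after 5 days in one step with final 0.05% Triton X-100, 1% formaldehyde and 1 ug/ml Hoechst. Dosing was a single drug or a fixed anchor-drug dose plus five library-drug doses (not always all listed) in √10 steps, and values are medians of duplicate plates imaged at 4×.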

Compound in the assay “FH535 + Lapatinib”: CC1=C(C=CC(=C1)[N+](=O)[O-])NS(=O)(=O)C2=C(C=CC(=C2)Cl)Cl [FH535] + CS(=O)(=O)CCNCc1ccc(-c2ccc3ncnc(Nc4ccc(OCc5cccc(F)c5)c(Cl)c4)c3c2)o1 [Lapatinib] (partner 2 µM)
An outline of the steps:
as §1

Compound in the assay “FH535 + Navitoclax”: CC1=C(C=CC(=C1)[N+](=O)[O-])NS(=O)(=O)C2=C(C=CC(=C2)Cl)Cl [FH535] + CC1(C)CCC(c2ccc(Cl)cc2)=C(CN2CCN(c3ccc(C(=O)NS(=O)(=O)c4ccc(N[C@H](CCN5CCOCC5)CSc5ccccc5)c(S(=O)(=O)C(F)(F)F)c4)cc3)CC2)C1 [Navitoclax] (partner 0.5 µM)
The procedure, abridged: as §1

Compound in the assay “FH535 + Trametinib”: CC1=C(C=CC(=C1)[N+](=O)[O-])NS(=O)(=O)C2=C(C=CC(=C2)Cl)Cl [FH535] + CC(=O)Nc1cccc(-n2c(=O)n(C3CC3)c(=O)c3c(Nc4ccc(I)cc4F)n(C)c(=O)c(C)c32)c1 [Trametinib] (partner 0.02 µM)
The procedure, abridged:
as §1

Compound in the assay “FH535 + Foretinib”: CC1=C(C=CC(=C1)[N+](=O)[O-])NS(=O)(=O)C2=C(C=CC(=C2)Cl)Cl [FH535] + COc1cc2c(Oc3ccc(NC(=O)C4(C(=O)Nc5ccc(F)cc5)CC4)cc3F)ccnc2cc1OCCCN1CCOCC1 [Foretinib] (partner 0.25 µM)
An outline of the steps: as §1

For the cell line NCI-H1734, the relative viability was 0.507 with FH535 + Dasatinib (first compound 0.1265 µM); 0.476 in the assay with FH535 + Dasatinib (first compound 0.4 µM); 0.431 with FH535 + Dasatinib (first compound 1.265 µM); 1.01 with FH535 + Lapatinib (first compound 0.04 µM); 1.14 with FH535 + Lapatinib (first compound 0.1265 µM); 0.955 with FH535 + Lapatinib (first compound 0.4 µM). Besides, the relative viability with FH535 + Lapatinib (first compound 1.265 µM) is 0.935; with FH535 + Navitoclax (first compound 0.04 µM), 0.802; in the assay with FH535 + Navitoclax (first compound 0.1265 µM) it was 0.902; with FH535 + Navitoclax (first compound 0.4 µM) it was 0.86; with FH535 + Navitoclax (first compound 1.265 µM), 0.735; with FH535 + Trametinib (first compound 0.04 µM), 0.574. Further, the relative viability with FH535 + Trametinib (first compound 0.1265 µM) was determined as 0.671; in the assay with FH535 + Trametinib (first compound 0.4 µM), 0.656; with FH535 + Trametinib (first compound 1.265 µM), 0.558; with FH535 + Foretinib (first compound 0.1265 µM) it was 0.91; with FH535 + Foretinib (first compound 0.4 µM) it was 0.886; with FH535 + Foretinib (first compound 1.265 µM) it was 0.773.
Consider NCI-H1755, for which the relative viability with FH535 + Dasatinib (first compound 0.04 µM) was found to be 0.353; in the assay with FH535 + Dasatinib (first compound 0.1265 µM), 0.46; in the assay with FH535 + Dasatinib (first compound 0.4 µM), 0.404; with FH535 + Dasatinib (first compound 1.265 µM), 0.422; with FH535 + Lapatinib (first compound 0.04 µM), 1.04; with FH535 + Lapatinib (first compound 0.1265 µM), 0.985. For the same cell line, the relative viability with FH535 + Lapatinib (first compound 0.4 µM) is 0.944; in the assay with FH535 + Lapatinib (first compound 1.265 µM) it was 0.949; with FH535 + Navitoclax (first compound 0.04 µM), 0.996; with FH535 + Navitoclax (first compound 0.1265 µM), 0.997; with FH535 + Navitoclax (first compound 0.4 µM), 1.01; with FH535 + Navitoclax (first compound 1.265 µM), 0.79. Further, the relative viability with FH535 + Trametinib (first compound 0.04 µM) was found to be 0.755; in the assay with FH535 + Trametinib (first compound 0.1265 µM), 0.809; in the assay with FH535 + Trametinib (first compound 0.4 µM), 0.725; with FH535 + Trametinib (first compound 1.265 µM), 0.739; with FH535 + Foretinib (first compound 0.04 µM) it was 0.862; with FH535 + Foretinib (first compound 0.1265 µM), 0.894. Besides, the relative viability amounted to 0.874 with FH535 + Foretinib (first compound 0.4 µM) and 0.854 with FH535 + Foretinib (first compound 1.265 µM).
With NCI-H1793, the relative viability in the assay with FH535 + Dasatinib (first compound 0.04 µM) amounted to 0.321; with FH535 + Dasatinib (first compound 0.1265 µM) it was 0.342; in the assay with FH535 + Dasatinib (first compound 0.4 µM), 0.296; with FH535 + Dasatinib (first compound 1.265 µM), 0.339; in the assay with FH535 + Lapatinib (first compound 0.04 µM), 0.525; in the assay with FH535 + Lapatinib (first compound 0.1265 µM), 0.575. Moreover, the relative viability came out at 0.641 with FH535 + Lapatinib (first compound 0.4 µM); 0.696 with FH535 + Lapatinib (first compound 1.265 µM); 0.49 with FH535 + Navitoclax (first compound 0.04 µM); 0.573 with FH535 + Navitoclax (first compound 0.1265 µM); 0.469 in the assay with FH535 + Navitoclax (first compound 0.4 µM); 0.325 with FH535 + Navitoclax (first compound 1.265 µM). Besides, the relative viability with FH535 + Trametinib (first compound 0.04 µM) amounted to 0.4; with FH535 + Trametinib (first compound 0.1265 µM) it was 0.421; in the assay with FH535 + Trametinib (first compound 0.4 µM), 0.425; in the assay with FH535 + Trametinib (first compound 1.265 µM), 0.399; with FH535 + Foretinib (first compound 0.04 µM), 0.347; with FH535 + Foretinib (first compound 0.1265 µM), 0.775. Further, the relative viability worked out at 0.798 in the assay with FH535 + Foretinib (first compound 0.4 µM) and 0.458 with FH535 + Foretinib (first compound 1.265 µM).
Consider NCI-H1915, for which the relative viability amounted to 0.292 in the assay with FH535 + Dasatinib (first compound 0.04 µM); 0.306 with FH535 + Dasatinib (first compound 0.1265 µM); 0.287 with FH535 + Dasatinib (first compound 0.4 µM); 0.3 with FH535 + Dasatinib (first compound 1.265 µM); 0.867 with FH535 + Lapatinib (first compound 0.04 µM); 0.826 with FH535 + Lapatinib (first compound 0.1265 µM). For the same cell line, the relative viability with FH535 + Lapatinib (first compound 0.4 µM) is 0.852; in the assay with FH535 + Lapatinib (first compound 1.265 µM), 0.795; in the assay with FH535 + Navitoclax (first compound 0.04 µM), 0.745; with FH535 + Navitoclax (first compound 0.1265 µM) it was 0.822; with FH535 + Navitoclax (first compound 0.4 µM) it was 0.777; in the assay with FH535 + Navitoclax (first compound 1.265 µM), 0.69. For the same cell line, the relative viability with FH535 + Trametinib (first compound 0.04 µM) was found to be 0.312; in the assay with FH535 + Trametinib (first compound 0.1265 µM) it was 0.324; in the assay with FH535 + Trametinib (first compound 0.4 µM) it was 0.296; in the assay with FH535 + Trametinib (first compound 1.265 µM) it was 0.247; with FH535 + Foretinib (first compound 0.04 µM) it was 1.11; with FH535 + Foretinib (first compound 0.1265 µM) it was 1.08. Further, the figures for the relative viability with FH535 + Foretinib (first compound 0.4 µM) and with FH535 + Foretinib (first compound 1.265 µM) were 1.01 and 0.738, respectively.
